From patent US12090225B2 (Avalyn Pharma Inc., priority 2018, dated 2024)

What was measured:
[1] = Inhaled pharmacokinetics of nintedanib salt forms (intratracheal); type: in vivo, C57BL/6 mice; conditions: for half-life: C57BL/6, mouse, 1 mg/kg, read-out: Elimination half-life (alpha-phase); for Cmax: read-out: Cmax
[2] = Tier 1: nintedanib esylate-excipient compatibility study; type: physicochemical
Procedure: Test solution 101-01-16-00 was filtered through a 0.22 micron PVDF filter, all other formulations were not filtered. The test solutions were filled into 10 mL clear Type I glass vials and sealed with Teflon-lined rubber stopper and aluminum crimp cap.

[3] = Therapeutic bleomycin model: body weight gain, lung weight-to-body weight ratio, tolerability; conditions: Oral Gavage (PO), dose group printed 0 mg/kg, BID; bleomycin rats
[4] = Plasma and lung pharmacokinetics of nintedanib esylate, oral vs intratracheal aerosol; type: in vivo, C57BL/6 mice; conditions: for adverse effect (dyspnea): mice; for Cmax / half-life / AUC(0-t): female, C57BL/6, mouse; for half-life: read-out: Elimination half-life (alpha-phase)
[5] = Inhaled pharmacokinetics of fixed combination nintedanib esylate and pirfenidone; type: in vivo, C57BL/6 mice; conditions: 10.0 mg/kg each IT; for half-life: read-out: Elimination half-life (alpha-phase)
Procedure: Plasma and lung tissue samples were taken 2, 5, 10, 20, 40 min and 1, 2, and 4 hours post dose. Nintedanib was extracted and quantitated as μg/mL plasma and μg/gram lung tissue.

[6] = Therapeutic bleomycin model: dose levels and lung pharmacokinetic comparison; type: in vivo, Sprague Dawley rats; conditions: Oral Gavage (PO) 60.0 mg/kg; rat
[7] = Compatibility of nintedanib esylate with container system and membrane filter (nylon filter, LDPE vials); type: physicochemical
From the text: Compatibility of Nintedanib Esylate with Container System and Type of Membrane Filter: The objective of this study is to determine the suitability of low density polyethylene (LDPE) vials and nylon filters for use with nintedanib esylate standalone and nintedanib esylate plus pirfenidone combination formulations. The test samples were stored at ambient room condition and periodically check for precipitation or crystallization.

[8] = Tier 3: compatibility in 30 mM NaCl with a second excipient; type: physicochemical
Procedure: Compatibility of nintedanib esylate and nintedanib esylate plus pirfenidone control with sodium chloride and a second excipient was assessed. […] The test solutions were filled into 10 mL clear Type I glass vials with Teflon lined rubber stopper and aluminum crimp caps and stored at ambient room condition away from light.

[9] = test system: bleomycin pulmonary fibrosis; assay: Therapeutic bleomycin pulmonary fibrosis model: Ashcroft fibrosis score, hydroxyproline; type: in vivo, Sprague Dawley rats; conditions: Oral Gavage (PO) 60 mg/kg BID; bleomycin rats
Procedure: Briefly, acclimated Sprague Dawley male rats (c.a. 253 grams at first dosing) were administered bleomycin on days 1, 2, 3 and 6 by the oropharyngeal (OP) route. On the eighth day, treatment was initiated with either saline or nintedanib. […] Ten animals were enrolled into each dosing group. […] All animals were euthanized on day 28d. Body weights were collected throughout the study, with lung weights at termination (Table 55). Left lungs were extracted and measured for hydroxyproline content, while […] were subjected to histology for Ashcroft fibrosis score determination (Table 56).

[10] = Formulation screening: compatibility of nintedanib esylate with pirfenidone and osmolality adjusting agents (visual appearance); type: physicochemical
Procedure: Formulation screening of stand alone nintedanib esylate and in combination with pirfenidone were conducted. Commonly used ionic osmolality adjusting agents include sodium chloride, sodium citrate, magnesium chloride were evaluated as excipients. In addition, mannitol and propylene glycol, which are […] osmolality adjusting agents, were also tested.
The resulting solutions, if not immediately precipitated, were filled into clear Type I glass vials and sealed with a Teflon lined rubber stopper and aluminum crimp cap. The test solutions were stored at ambient room condition in the dark. Visual appearance was periodically assessed within 24 hours and periodically thereafter. Table 31 summarizes the initial formulation screening results.

[11] = 1 mg/kg (base equivalent) IT, mice
[12] = 100.0 mg/kg PO, Lung (whole lung homogenate)
[13] = inhaled or intranasal, 2.5 mg/kg IT, Lung (whole lung homogenate)
[14] = inhaled or intranasal, 2.5 mg/kg IT, Plasma
[15] = inhaled or intranasal, 10.0 mg/kg IT, Lung (whole lung homogenate)
[16] = inhaled or intranasal, 10.0 mg/kg IT, Plasma
[17] = female, C57BL/6, mouse, inhaled or intranasal, Lung (whole lung homogenate)
[18] = female, C57BL/6, mouse, inhaled or intranasal, Plasma

## COC(=O)c1ccc2c(c1)NC(=O)/C2=C(\Nc1ccc(N(C)C(=O)CN2CCN(C)CC2)cc1)c1ccccc1 [Nintedanib esylate]
[1]; [11]
  Lung AUC: about 20 mg·hr/kg
  lung half-life: about 3 minutes
[1]; female, lung (whole lung homogenate), inhaled or intranasal, lung (whole lung homogenate), 1.0 mg/kg IT, C57BL/6 mice
  half-life: 2.9 min
[1]; female, plasma, inhaled or intranasal, plasma, 1.0 mg/kg IT, C57BL/6 mice
  half-life: 2 min
[1]; female, mouse, inhaled or intranasal, lung (whole lung homogenate), 1.0 mg/kg IT, C57BL/6 mice
  Cmax: 34500 ng/g
[1]; female, mouse, inhaled or intranasal, plasma, 1.0 mg/kg IT (base equivalent), C57BL/6 mice
  Cmax: 400 ng/mL
[1]; female, mouse, inhaled or intranasal, plasma, 1.0 mg/kg IT, C57BL/6 mice
  AUC(0-t): 200 ng·h/mL
[1]; lung (whole lung homogenate), 1.0 mg/kg IT, C57BL/6 mice
  AUC 0-last: 21.7 mg·h/kg
[2]
  compatibility with clear borosilicate glass vial: not compatible
[2]; 0.22 μm
  compatibility with PVDF membrane filter: not compatible
[3]
  Body Weight Gain, Delta to Sham (%): −46.9%
[4]; 2.5 mg/kg IT
  adverse effect (dyspnea): not observed
[4]; 2.5 mg/kg IT, Lung (whole lung homogenate)
  AUC 0-last: 67.8 mg·h/kg
[4]; 10 mg/kg IT
  adverse effect (dyspnea): caused dyspnea
[4]; 10.0 mg/kg IT, Lung (whole lung homogenate)
  AUC 0-last: 167.8 mg·h/kg
[4]; [12]
  AUC 0-last: 24.1 mg·h/kg
  Cmax: 12100 ng/g
[4]; [13]
  Cmax: 57500 ng/g
  half-life: 3.8 min
[4]; [14]
  AUC(0-t): 200 ng·h/mL
  Cmax: 700 ng/mL
  half-life: 2.3 min
[4]; [15]
  Cmax: 250000 ng/g
  half-life: 5.6 min
[4]; [16]
  AUC(0-t): 600 ng·h/mL
  Cmax: 2700 ng/mL
  half-life: 2.3 min
[4]; 100.0 mg/kg PO, Plasma
  AUC(0-t): 1800 ng·h/mL
  Cmax: 600 ng/mL
  half-life: 112 min
[5]; Lung (whole lung homogenate)
  AUC 0-last: 68.4 mg·h/kg
[5]; [17]
  Cmax: 171000 ng/g
  half-life: 1.8 min
[5]; [18]
  AUC(0-t): 1000 ng·h/mL
  Cmax: 2800 ng/mL
  half-life: 7.7 min
[6]
  Lung AUC: 29.3 mg·h/kg
  Lung Cmax: 4.4 µg/g
[7]; NaCl at 30 mM, in absence of pirfenidone, irrespective of container type and filtration material
  compatibility with NaCl: incompatible
[7]; even at 0.5 mg/mL nintedanib esylate
  suitability of clear borosilicate glass vial: not suitable
[7]; nintedanib esylate and nintedanib esylate in 1.5% propylene glycol solutions
  suitability of LDPE vial: suitable
[8]
  stability by itself in 30 mM NaCl: not stable
[9]
  Fibrosis Score (SD) (Ashcroft): 2.3 (0.45)
  Fibrosis Score, Delta to Vehicle (%): 11.5%
[10]; aqueous solution
  compatibility with sodium citrate: incompatible
[10]; sodium chloride at 30 mM
  compatibility with sodium chloride: may be compatible
[10]; sodium chloride at 60 mM or higher
  compatibility with sodium chloride: incompatible
